Reference: ChEMBL document CHEMBL1149262, “Monoamine transporter binding, locomotor activity, and drug discrimination properties of 3-(4-substituted-phenyl)tropane-2-carboxylic acid methyl ester isomers” (J Med Chem, 2004)
The source made the active and inactive calls. The calls are words filed in the database; no cut-off is given here.

Columns and labels:
Rattus norvegicus [1] = assay: Cocaine discrimination in ip dosed CD Albino rat; assay type: functional
Rattus norvegicus [2] = assay: Drug discrimination effect in CD Albino rat assessed as percent of rat choosing cocaine lever at 1 mg/kg, ip; assay type: functional; conditions: route intraperitoneal
Rattus norvegicus [3] = assay: Drug discrimination effect in CD Albino rat assessed as percent of rat choosing cocaine lever at 1.7 mg/kg, ip; assay type: functional; conditions: route intraperitoneal
Rattus norvegicus [4] = assay: Drug discrimination effect in CD Albino rat assessed as percent of rat choosing cocaine lever at 3 mg/kg, ip; assay type: functional; conditions: route intraperitoneal
Rattus norvegicus [5] = assay: Drug discrimination effect in CD Albino rat assessed as percent of rat choosing cocaine lever at 5.6 mg/kg, ip; assay type: functional; conditions: route intraperitoneal
Rattus norvegicus [6] = assay: Drug discrimination effect in CD Albino rat assessed as percent of rat choosing cocaine lever at 10 mg/kg, ip; assay type: functional; conditions: route intraperitoneal
Rattus norvegicus [7] = assay: Drug discrimination effect in CD Albino rat assessed as percent of rat choosing cocaine lever at 17 mg/kg, ip; assay type: functional; conditions: route intraperitoneal
Rattus norvegicus [8] = assay: Drug discrimination effect in CD Albino rat assessed as percent of rat choosing cocaine lever at 30 mg/kg, ip; assay type: functional; conditions: route intraperitoneal
Mus musculus [9] = assay: Activity in CD1 mouse assessed as slight or intermittent hyperactivity at 10 mg/kg, ip after 4 hrs; assay type: functional, organism-based; set-up: dose 10 mg/kg
Mus musculus [10] = assay: Activity in CD1 mouse assessed as hyperactivity at 100 mg/kg, ip after 4 hrs; assay type: functional, organism-based; set-up: dose 100 mg/kg
Mus musculus [11] = assay: Activity in CD1 mouse assessed as stereotypy at 100 mg/kg, ip after 4 hrs; assay type: functional, organism-based; set-up: dose 100 mg/kg
Mus musculus [12] = assay: Activity in CD1 mouse assessed as circling at 100 mg/kg, ip after 4 hrs; assay type: functional, organism-based; set-up: dose 100 mg/kg
[13] = molecular target: Sodium-dependent dopamine transporter (Homo sapiens, UniProt Q01959); assay: Displacement of [3H]WIN-35428 from DAT
Sodium-dependent dopamine transporter, sequence (Q01959 whole entry): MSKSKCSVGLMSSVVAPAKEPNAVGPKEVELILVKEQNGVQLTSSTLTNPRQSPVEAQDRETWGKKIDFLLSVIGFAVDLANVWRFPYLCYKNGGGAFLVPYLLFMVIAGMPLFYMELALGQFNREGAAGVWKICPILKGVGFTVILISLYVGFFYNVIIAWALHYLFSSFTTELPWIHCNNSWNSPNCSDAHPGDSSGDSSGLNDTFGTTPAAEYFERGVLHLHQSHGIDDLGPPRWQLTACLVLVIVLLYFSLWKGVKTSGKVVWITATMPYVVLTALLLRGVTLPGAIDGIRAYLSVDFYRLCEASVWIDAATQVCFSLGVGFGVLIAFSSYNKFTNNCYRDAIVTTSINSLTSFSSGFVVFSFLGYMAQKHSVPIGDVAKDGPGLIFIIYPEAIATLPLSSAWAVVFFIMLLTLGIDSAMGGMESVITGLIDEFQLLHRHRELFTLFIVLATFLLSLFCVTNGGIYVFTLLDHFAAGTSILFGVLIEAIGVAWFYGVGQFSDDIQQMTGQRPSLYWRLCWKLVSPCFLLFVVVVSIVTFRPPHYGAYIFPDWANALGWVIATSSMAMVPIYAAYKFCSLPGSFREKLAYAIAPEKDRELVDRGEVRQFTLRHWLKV

[14] = molecular target: Sodium-dependent noradrenaline transporter (Homo sapiens, UniProt P23975); assay: Displacement of [3H]nisoxetine from NET
Sodium-dependent noradrenaline transporter, sequence (P23975 whole entry): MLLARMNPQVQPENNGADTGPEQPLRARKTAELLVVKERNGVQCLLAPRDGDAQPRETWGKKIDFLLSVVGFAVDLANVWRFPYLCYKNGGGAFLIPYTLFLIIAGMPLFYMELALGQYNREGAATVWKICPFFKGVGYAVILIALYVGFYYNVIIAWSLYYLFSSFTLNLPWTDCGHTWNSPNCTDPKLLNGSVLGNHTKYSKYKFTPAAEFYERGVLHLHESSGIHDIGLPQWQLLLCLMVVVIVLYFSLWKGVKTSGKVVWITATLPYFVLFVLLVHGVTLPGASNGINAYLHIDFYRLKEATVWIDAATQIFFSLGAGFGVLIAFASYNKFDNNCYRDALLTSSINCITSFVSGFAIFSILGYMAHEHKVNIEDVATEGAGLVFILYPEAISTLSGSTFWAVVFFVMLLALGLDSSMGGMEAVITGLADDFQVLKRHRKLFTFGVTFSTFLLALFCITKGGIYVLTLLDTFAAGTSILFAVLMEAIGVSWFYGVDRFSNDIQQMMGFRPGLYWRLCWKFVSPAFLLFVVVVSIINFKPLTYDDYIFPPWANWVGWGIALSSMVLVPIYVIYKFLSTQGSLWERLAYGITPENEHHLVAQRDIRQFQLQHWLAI

Mus musculus [15] = assay: Locomotor activity in ip dosed CD1 mouse in peak hour; assay type: functional
Mus musculus [16] = assay: Locomotor activity in CD1 mouse assessed as stimulation at 3 mg/kg, ip after 1 hr relative to control; assay type: functional; conditions: route intraperitoneal
Mus musculus [17] = assay: Locomotor activity in CD1 mouse assessed as stimulation at 3 mg/kg, ip after 2 hrs relative to control; assay type: functional; conditions: route intraperitoneal
Mus musculus [18] = assay: Locomotor activity in CD1 mouse assessed as stimulation at 3 mg/kg, ip after 3 hrs relative to control; assay type: functional; conditions: route intraperitoneal
Mus musculus [19] = assay: Locomotor activity in CD1 mouse assessed as stimulation at 3 mg/kg, ip after 4 hrs relative to control; assay type: functional; conditions: route intraperitoneal
Mus musculus [20] = assay: Locomotor activity in CD1 mouse assessed as stimulation at 10 mg/kg, ip after 1 hr relative to control; assay type: functional; conditions: route intraperitoneal
Mus musculus [21] = assay: Locomotor activity in CD1 mouse assessed as stimulation at 10 mg/kg, ip after 2 hrs relative to control; assay type: functional; conditions: route intraperitoneal
Mus musculus [22] = assay: Locomotor activity in CD1 mouse assessed as stimulation at 10 mg/kg, ip after 3 hrs relative to control; assay type: functional; conditions: route intraperitoneal
Mus musculus [23] = assay: Locomotor activity in CD1 mouse assessed as stimulation at 10 mg/kg, ip after 4 hrs relative to control; assay type: functional; conditions: route intraperitoneal
Mus musculus [24] = assay: Locomotor activity in CD1 mouse assessed as stimulation at 30 mg/kg, ip after 1 hr relative to control; assay type: functional; conditions: route intraperitoneal
Mus musculus [25] = assay: Locomotor activity in CD1 mouse assessed as stimulation at 30 mg/kg, ip after 2 hrs relative to control; assay type: functional; conditions: route intraperitoneal
Mus musculus [26] = assay: Locomotor activity in CD1 mouse assessed as stimulation at 30 mg/kg, ip after 3 hrs relative to control; assay type: functional; conditions: route intraperitoneal
Mus musculus [27] = assay: Locomotor activity in CD1 mouse assessed as stimulation at 30 mg/kg, ip after 4 hrs relative to control; assay type: functional; conditions: route intraperitoneal
Mus musculus [28] = assay: Locomotor activity in CD1 mouse assessed as stimulation at 100 mg/kg, ip after 1 hr relative to control; assay type: functional; conditions: route intraperitoneal
Mus musculus [29] = assay: Locomotor activity in CD1 mouse assessed as stimulation at 100 mg/kg, ip after 2 hrs relative to control; assay type: functional; conditions: route intraperitoneal
Mus musculus [30] = assay: Locomotor activity in CD1 mouse assessed as stimulation at 100 mg/kg, ip after 3 hrs relative to control; assay type: functional; conditions: route intraperitoneal
Mus musculus [31] = assay: Locomotor activity in CD1 mouse assessed as stimulation at 100 mg/kg, ip after 4 hrs relative to control; assay type: functional; conditions: route intraperitoneal
Mus musculus [32] = assay: Locomotor activity in CD1 mouse assessed as stimulation at 1 mg/kg, ip after 1 hr relative to control; assay type: functional; conditions: route intraperitoneal
Mus musculus [33] = assay: Locomotor activity in CD1 mouse assessed as stimulation at 1 mg/kg, ip after 2 hrs relative to control; assay type: functional; conditions: route intraperitoneal
Mus musculus [34] = assay: Locomotor activity in CD1 mouse assessed as stimulation at 1 mg/kg, ip after 3 hrs relative to control; assay type: functional; conditions: route intraperitoneal
Mus musculus [35] = assay: Locomotor activity in CD1 mouse assessed as stimulation at 1 mg/kg, ip after 4 hrs relative to control; assay type: functional; conditions: route intraperitoneal
Mus musculus [36] = assay: Activity in CD1 mouse assessed as stereotypy at 10 mg/kg, ip after 4 hrs; assay type: functional, organism-based; set-up: dose 10 mg/kg
Mus musculus [37] = assay: Activity in CD1 mouse assessed as ptosis at 10 mg/kg, ip after 4 hrs; assay type: functional, organism-based; set-up: dose 10 mg/kg
Mus musculus [38] = assay: Activity in CD1 mouse assessed as hypoactivity at 10 mg/kg, ip after 4 hrs; assay type: functional, organism-based; set-up: dose 10 mg/kg
Mus musculus [39] = assay: Activity in CD1 mouse assessed as straub tail at 100 mg/kg, ip after 4 hrs; assay type: functional, organism-based; set-up: dose 100 mg/kg
Mus musculus [40] = assay: Activity in CD1 mouse assessed as death at 100 mg/kg, ip after 4 hrs; assay type: functional, organism-based; set-up: dose 100 mg/kg
Mus musculus [41] = assay: Activity in CD1 mouse assessed as convulsions at 100 mg/kg, ip after 4 hrs; assay type: functional, organism-based; set-up: dose 100 mg/kg
Mus musculus [42] = assay: Activity in CD1 mouse assessed as hypoactivity at 100 mg/kg, ip after 4 hrs; assay type: functional, organism-based; set-up: dose 100 mg/kg
Mus musculus [43] = assay: Activity in CD1 mouse assessed as ptosis at 100 mg/kg, ip after 4 hrs; assay type: functional, organism-based; set-up: dose 100 mg/kg
[44] = molecular target: Sodium-dependent serotonin transporter (Homo sapiens, UniProt P31645)
Sodium-dependent serotonin transporter, sequence (P31645 whole entry): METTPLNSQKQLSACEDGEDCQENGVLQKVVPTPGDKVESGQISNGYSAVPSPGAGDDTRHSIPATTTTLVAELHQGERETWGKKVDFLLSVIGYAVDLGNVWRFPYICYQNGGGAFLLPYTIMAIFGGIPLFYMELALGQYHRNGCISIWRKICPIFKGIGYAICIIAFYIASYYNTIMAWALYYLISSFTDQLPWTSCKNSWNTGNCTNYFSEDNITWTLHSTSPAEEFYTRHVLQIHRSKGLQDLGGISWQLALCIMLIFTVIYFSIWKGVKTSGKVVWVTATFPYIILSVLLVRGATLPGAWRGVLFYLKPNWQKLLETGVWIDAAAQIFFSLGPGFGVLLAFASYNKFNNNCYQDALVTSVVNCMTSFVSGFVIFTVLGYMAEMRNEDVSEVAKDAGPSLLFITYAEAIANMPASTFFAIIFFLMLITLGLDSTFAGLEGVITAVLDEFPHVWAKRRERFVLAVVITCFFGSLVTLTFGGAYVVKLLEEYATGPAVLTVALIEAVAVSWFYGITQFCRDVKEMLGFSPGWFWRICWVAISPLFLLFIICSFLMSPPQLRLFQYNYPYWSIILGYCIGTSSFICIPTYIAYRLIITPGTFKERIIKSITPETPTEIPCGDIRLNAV
Description: Displacement of [3H]paroxetine from 5HTT

Mus musculus [45] = assay: Activity in CD1 mouse assessed as stimulation at 10 mg/kg, ip after 4 hrs; assay type: functional, organism-based; set-up: dose 10 mg/kg
Mus musculus [46] = assay: Activity in CD1 mouse assessed as tremor at 100 mg/kg, ip after 4 hrs; assay type: functional, organism-based; set-up: dose 100 mg/kg
Mus musculus [47] = assay: Activity in CD1 mouse assessed as ataxia at 100 mg/kg, ip after 4 hrs; assay type: functional, organism-based; set-up: dose 100 mg/kg

| Compound | ED50 (Rattus norvegicus [1]) [mg/kg] | Activity (Rattus norvegicus [4]) [%] | Activity (Rattus norvegicus [5]) [%] | Activity (Rattus norvegicus [6]) [%] | Activity (Mus musculus [11]) | Activity (Mus musculus [12]) | IC50 [13] [nM] | ED50 (Mus musculus [15]) [mg/kg] | Activity (Mus musculus [16]) [%] | Activity (Mus musculus [17]) [%] | Activity (Mus musculus [18]) [%] | Activity (Mus musculus [19]) [%] | Activity (Mus musculus [20]) [%] | Activity (Mus musculus [21]) [%] | Activity (Mus musculus [22]) [%] | Activity (Mus musculus [23]) [%] | Activity (Mus musculus [24]) [%] | Activity (Mus musculus [25]) [%] | Activity (Mus musculus [26]) [%] | Activity (Mus musculus [27]) [%] | further results |
| --- | --- | --- | --- | --- | --- | --- | --- | --- | --- | --- | --- | --- | --- | --- | --- | --- | --- | --- | --- | --- | --- |
| COC(=O)[C@@H]1C2CCC(C[C@H]1c1ccc(C)cc1)N2C (stereo partly specified) | 7.73 | 29 | 43 | 43 | Active | Active | 10.2 | 14.7 | 28 | 29 | -6 | -41 | 294 | 149 | 108 | 22 | 482 | 147 | 5 | -66 | Activity (Rattus norvegicus [2]): 0%; Activity (Rattus norvegicus [3]): 14%; Activity (Rattus norvegicus [7]): 75%; Activity (Rattus norvegicus [8]): 100%; Activity (Mus musculus [9]): Active; Activity (Mus musculus [10]): Active; IC50 [14]: 270 nM; Ki [14]: 160 nM; Activity (Mus musculus [28]): 843%; Activity (Mus musculus [29]): 436%; Activity (Mus musculus [30]): 263%; Activity (Mus musculus [31]): 18% |
| COC(=O)[C@H]1C2CCC(C[C@@H]1c1ccc(Br)cc1)N2C (stereo partly specified) | 7.29 | 25 | 17 | 86 | Active | Active | 15.7 | 10 | 19 | 123 | 100 | 29 | 49 | 268 | 267 | 74 | -33 | 640 | 901 | 373 | Activity (Mus musculus [32]): 9%; Activity (Mus musculus [33]): 26%; Activity (Mus musculus [34]): 56%; Activity (Mus musculus [35]): -5%; Activity (Mus musculus [36]): Active; Activity (Mus musculus [37]): Active; Activity (Mus musculus [38]): Active; Activity (Mus musculus [39]): Active; Activity (Mus musculus [40]): Active; Activity (Mus musculus [41]): Active; Activity (Mus musculus [42]): Active; Activity (Mus musculus [43]): Active; IC50 [44]: 570 nM; Ki [44]: 140 nM |
| COC(=O)[C@H]1C2CCC(C[C@@H]1c1ccc(Cl)cc1)N2C (stereo partly specified) | 4.07 | 13 | 88 | 67 | Active | Active | 25 | 4.3 | 68 | 188 | 92 | 15 | 248 | 1003 | 1275 | 667 | 154 | 493 | 911 | 794 | Activity (Mus musculus [32]): 15%; Activity (Mus musculus [33]): 50%; Activity (Mus musculus [34]): 83%; Activity (Mus musculus [35]): 62%; Activity (Mus musculus [45]): Active; Activity (Mus musculus [39]): Active; Activity (Mus musculus [40]): Active; Activity (Mus musculus [41]): Active; Activity (Mus musculus [46]): Active; Activity (Mus musculus [47]): Active |
